Reference: PubChem BioAssay AID276 (DTP/NCI, 2004)
Toxic doses and inconclusive results are not listed. How the source made its calls: active means survival T/C of 150% or more; inactive means T/C below 125% in these data.

Test system: B6C3F1 mice, Lewis lung carcinoma iv, survival T/C
Assay: NCI In Vivo Anticancer Drug Screen. Data for tumor model Lewis Lung Carcinoma (intravenous) in B6C3F1 mice
Conditions: endpoint: median survival time, schedule: Q01DX009 (ip), higher = longer survival
Outline: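 T/C ratio derived from survival of compound-treated versus vehicle-treated mice bearing transplantable tumors.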

[1] = dose: 12.5 mg/kg/injection, vehicle: saline with Tween-80
[2] = dose: 25.0 mg/kg/injection, vehicle: saline with Tween-80
[3] = dose: 50.0 mg/kg/injection, vehicle: saline with Tween-80
[4] = dose: 12.5 mg/kg/injection, vehicle: saline
[5] = dose: 25.0 mg/kg/injection, vehicle: saline
[6] = dose: 50.0 mg/kg/injection, vehicle: saline
[7] = dose: 100.0 mg/kg/injection, vehicle: saline
[8] = dose: 200.0 mg/kg/injection, vehicle: saline
[9] = dose: 6.25 mg/kg/injection, vehicle: saline
[10] = dose: 3.12 mg/kg/injection, vehicle: water
[11] = dose: 6.25 mg/kg/injection, vehicle: water
[12] = dose: 12.5 mg/kg/injection, vehicle: water
[13] = dose: 25.0 mg/kg/injection, vehicle: water
[14] = dose: 100.0 mg/kg/injection, vehicle: saline with Tween-80
[15] = dose: 12.5 mg/kg/injection, vehicle: suspension in saline
[16] = dose: 25.0 mg/kg/injection, vehicle: suspension in saline
[17] = dose: 50.0 mg/kg/injection, vehicle: suspension in saline
[18] = dose: 100.0 mg/kg/injection, vehicle: suspension in saline

Measured: T/C

NS(=O)(=O)OCCCCCCCOS(N)(=O)=O
inactive: [1] 91 % of control | [2] 98 % of control | [3] 88 % of control

COC(=O)c1ccoc1
inactive: [4] 100 % of control | [5] 111 % of control | [6] 97 % of control | [7] 108 % of control | [8] 117 % of control

CN(C)CCNc1ccc([N+](=O)[O-])c2sc3ccccc3c(=O)c12
inactive: dose: 3.12 mg/kg/injection, vehicle: saline 96 % of control | [9] 108 % of control | [4] 115 % of control | [5] 119 % of control

CO[C@@]12[C@@H]3N[C@@H]3CN1C1=C(C(=O)C(NCC3CCCO3)=C(C)C1=O)[C@@H]2COC(N)=O (some centres undefined)
inactive: dose: 1.5 mg/kg/injection, vehicle: distilled water + Tween-80 104 % of control | dose: 3.0 mg/kg/injection, vehicle: distilled water + Tween-80 104 % of control | dose: 6.0 mg/kg/injection, vehicle: distilled water + Tween-80 116 % of control

Cn1c(=O)[nH]c2nncnc2c1=O
inactive: [10] 97 % of control | [11] 105 % of control | [12] 102 % of control | [13] 94 % of control | dose: 50.0 mg/kg/injection, vehicle: water 90 % of control

CC1(C)CC2(C)OC2C2(C1)N=NC(=Nc1ccccc1)O2 (centres undefined)
inactive: [2] 97 % of control | [3] 100 % of control | [14] 106 % of control

C/C=C(\C)c1cc(=O)c2c(C)cc3c(c2o1)C(=O)c1c(O)c(C2CC(C)(N(C)C)C(OC(C)=O)C(C)O2)cc(C2CC(N(C)C)C(O)C(C)O2)c1C3=O (centres undefined)
inactive: dose: 0.15 mg/kg/injection, vehicle: suspension in saline 101 % of control | dose: 0.31 mg/kg/injection, vehicle: suspension in saline 103 % of control | dose: 0.62 mg/kg/injection, vehicle: suspension in saline 97 % of control | dose: 1.25 mg/kg/injection, vehicle: suspension in saline 107 % of control | dose: 2.5 mg/kg/injection, vehicle: suspension in saline 111 % of control | dose: 5.0 mg/kg/injection, vehicle: suspension in saline 106 % of control

Cc1c(N)nc(C(CC(N)=O)NCC(N)C(N)=O)nc1C(=O)NC(C(=O)NC(C)C(O)C(C)C(=O)NC(C(=O)NCCc1nc(-c2nc(C(=O)NCCCNCCCc3ccccn3)cs2)cs1)C(C)O)C(OC1OC(CO)C(O)C(O)C1OC1OC(CO)C(O)C(OC(N)=O)C1O)c1cnc[nH]1 (centres undefined)
inactive: dose: 2.0 mg/kg/injection, vehicle: saline 113 % of control | dose: 3.0 mg/kg/injection, vehicle: saline + alcohol 108 % of control | dose: 4.0 mg/kg/injection, vehicle: saline 110 % of control | dose: 6.0 mg/kg/injection, vehicle: saline + alcohol 108 % of control | [9] 122 % of control | dose: 8.0 mg/kg/injection, vehicle: saline 114 % of control | dose: 12.0 mg/kg/injection, vehicle: saline + alcohol 123 % of control | [4] 123 % of control

Nc1ncnc2c1cnn2Cc1ccc(Cl)cc1
inactive: [5] 94 % of control | [6] 106 % of control | [7] 111 % of control | [8] 93 % of control

COC1CC(C)C(OC)c2cc(O)cc(c2O)NC(=O)/C(C)=C/C=C\C(C)C(OC(N)=O)/C(C)=C\C(C)C1OC (centres undefined)
inactive: dose: 5.0 mg/kg/injection, vehicle: saline + alcohol 115 % of control | dose: 10.0 mg/kg/injection, vehicle: saline + alcohol 88 % of control

O=S1(=O)C=C(c2ccccc2)C(c2ccccc2)=C1
inactive: dose: 3.12 mg/kg/injection, vehicle: saline with Tween-80 101 % of control | dose: 6.25 mg/kg/injection, vehicle: saline with Tween-80 89 % of control | [1] 101 % of control | [2] 110 % of control

Nc1nc(=S)c2ncn(C3CC(O)C(CO)O3)c2[nH]1 (centres undefined)
inactive: [15] 113 % of control | [16] 100 % of control | [17] 108 % of control | [18] 103 % of control | dose: 200.0 mg/kg/injection, vehicle: suspension in saline 95 % of control | dose: 400.0 mg/kg/injection, vehicle: suspension in saline 90 % of control

Cc1ccc2nc(-c3ccc4nc(-c5ccc(N=Nc6ccc(-c7nc8ccc(-c9nc%10ccc(C)c(S(=O)(=O)O)c%10s9)cc8s7)cc6)cc5)sc4c3)sc2c1S(=O)(=O)O
inactive: [15] 95 % of control | [16] 98 % of control | [17] 107 % of control | [18] 107 % of control

COc1ccc(-c2csc(=[N+]3CCCCC3)s2)cc1
inactive: dose: 1.56 mg/kg/injection, vehicle: water 108 % of control | [10] 104 % of control | [11] 104 % of control | [12] 94 % of control | [13] 95 % of control

COC(=O)[C@@]12OC[C@]34[C@H]([C@@H](O)[C@@H]1O)[C@@]1(C)CC(=O)C(O)=C(C)[C@@H]1C[C@H]3OC(=O)[C@H](OC(=O)/C=C(\C)C(C)C)[C@@H]24
inactive: dose: 0.25 mg/kg/injection, vehicle: saline + alcohol 102 % of control | dose: 0.5 mg/kg/injection, vehicle: saline + alcohol 104 % of control | dose: 1.0 mg/kg/injection, vehicle: saline + alcohol 107 % of control

Cc1nc(N)nc(N)c1-c1ccc(Cl)c(Cl)c1
inactive: dose: 0.32 mg/kg/injection, vehicle: saline 97 % of control | dose: 0.63 mg/kg/injection, vehicle: saline 109 % of control | dose: 1.25 mg/kg/injection, vehicle: saline 120 % of control | dose: 2.5 mg/kg/injection, vehicle: saline 113 % of control | dose: 5.0 mg/kg/injection, vehicle: saline 124 % of control | dose: 10.0 mg/kg/injection, vehicle: saline 112 % of control

Nc1ccc(Cn2ccc3c4c(N)nc(N)nc4ccc32)cc1
inactive: dose: 1.25 mg/kg/injection, vehicle: saline with Tween-80 105 % of control | dose: 2.5 mg/kg/injection, vehicle: saline with Tween-80 107 % of control | dose: 5.0 mg/kg/injection, vehicle: saline with Tween-80 107 % of control | dose: 10.0 mg/kg/injection, vehicle: saline with Tween-80 108 % of control

CN(C)c1nc(N(C)C)nc(N(C)C)n1
inactive: [2] 101 % of control | [3] 114 % of control | [14] 109 % of control | dose: 200.0 mg/kg/injection, vehicle: saline with Tween-80 111 % of control
